Assays:
[1] = system: dynamin-dynamin interactions; assay: FLIM analysis of dynamin-dynamin interactions (self-assembly) in podocytes; format: cell-based, mouse; conditions: for Mean Lifetime (γ1): Table 4, donor GTPase-a488, acceptor Hudy1-a568, in ps; for dynamin self-assembly by FLIM, in words: podocytes pretreated
Experimental: In one embodiment the cell-based assay to monitor dynamin-dynamin interactions is performed on a cultured mouse podocyte cell line and the readout of dynamin self-assembly using fluorescence lifetime imaging microscopy (FLIM). FLIM is based on the fluorescence resonance energy transfer (FRET) between the donor and acceptor that shortens the lifetime of the donor if the acceptor distance is within ≈100 Å (10 nm). […] The assay is based on overexpressing dynamin in podocytes, and subsequently staining fixed cells with monoclonal anti-dynamin antibodies that have been conjugated with donor or acceptor florophores. In one embodiment of the invention, Alexa-488 is used as the donor florophore and Alexa-568 is used as the acceptor florophore. In yet another embodiment the donor florophore is dynamin conjugated enhanced-cyan fluorescence protein (ECFP) and the acceptor is dynamin conjugated enhanced yellow-fluorescence protein (EYFP). It will be appreciated by the person of ordinary skill in the art that numerous combinations of FRET donor and acceptors can be used, which are readily available and known. In one embodiment, the FLIM assay is carried out in COS cells and the donor can be selected from the list consisting of: ECFP-WT, ECFP-1690K, ECFP-K44A, ECFP-K694A, and the -acceptor can be selected from the list consisting of: EYFP, EYFP-WT, EYFP-K44A, EYFP-1690K, EYFP-K694A. In yet another embodiment the FLIM assay is performed in podocytes and the donor is GTPase-Alexa488 and the acceptor is selected from the list consisting of: DAM-Alexa568, GTPase-Alexa568, and Hudyl-Alexa568. Cells are stained by mixing both donor and acceptor florophores in equal amounts, and examining the spatially-restricted lifetime shortening in cells detects the localization of dynamin-dynamin interactions in cells. Since dynamin-dynamin interactions are vital for the function of the podocyte, it will be appreciated by the person of ordinary skill in the art that this assay can now be used to screen peptides, small molecules or drugs which can affect these molecular interactions. For example such molecules are cytocholasin D, jasplakinolide, colchisine, dynK44A, dynK694A, dynWT, dynI690K, dynR725A (SEQ ID NO.4), dynL356Q, G358V, (SEQ ID NO.3) any combination thereof, etc.
In order to test the hypothesis that self-assembly of dynamin was protecting its cathepsin L processing in cultured podocytes, dynamin self-assembly in live cells was examined using fluorescence lifetime imaging microscopy (FLIM). FLIM is based on the fluorescence resonance energy transfer (FRET) between the donor and the acceptor that shortens the lifetime of the donor if the acceptor distance is within ≈100 Å (10 nm). […] A FLIM-assay was developed that specifically detects dynamin self-assembly into the higher order structures in podocytes. The assay is based on overexpressing dynamin in podocytes, and subsequently staining fixed cells with monoclonal anti-dynamin antibodies that have been conjugated with either Alexa-488 (donor florophore) or Alexa-568 (acceptor florophore). Cells are stained by mixing both florophores in equal amounts, and examining lifetime of Alexa-488. […] Importantly, FRET only occurred in the vicinity of the membrane. […] Thus, both dominant activating mutants, dynK694A and dynR725A, are impaired for assembly into a supramolecular structures in podocytes under normal conditions. […] Loss of FRET measured FLIM correlates with the loss of p40 proteolytic fragment in cultured podocytes. And presence of p40 in cells expressing dynR725A under normal conditions correlates with the lack of dynR725A assembly detected by FLIM. The opposite is true for the dynWT; lack of p40 under control conditions when FLIM is present, and appearance of the p40 upon LPS treatment with no measurable FRET. […] Finally, proteolytic processing of dynamin after LPS treatment is also observed in vivo. […]

[2] = system: dynamin-dynamin interactions; assay: FLIM analysis of dynamin-dynamin interactions in live COS cells; format: cell-based; conditions: for dynamin-dynamin interactions measured by FLIM, in words: COS cells pre-treated; for Mean Lifetime (γ1) ps: Table 3
Source text: FLIM is based on the fluorescence resonance energy transfer (FRET) between the donor and acceptor that shortens the lifetime of the donor if the acceptor distance is within ≈100 Å (10 nm). […] To this end, dynamin was tagged with either ECFP or EYFP on its N- and C-termini. Fusion proteins were expressed in COS cells, because these cells are flattened and have minimal background autofluorescence, which allows clear visualization of cells by wide-field microscopy.
The observed decrease in fluorescence lifetime of CFP-dynamin in cells expressing EYFP-dynamin could result from interactions between dynamin monomers within tetramers/dimers, or from interactions between assembled tetramers/dimmers into higher order structures (FIG. 8C). To distinguish these two possibilities, we used FLIM to examine dynI690K. […] The longer average lifetimes of dynI690K than dynwt argue strongly that the assay detects higher order dynamin self-assembly and not tetramer formation.

[3] = donor CFP-WT, acceptor YFP-WT, cells treated with the substance

| Molecule | dynamin-dynamin interactions measured by FLIM, in words [2] | Mean Lifetime (γ1) ps [2, 3] [ps] | other results |
| --- | --- | --- | --- |
| COc1cc2c(c(OC)c1OC)-c1ccc(OC)c(=O)cc1[C@@H](NC(C)=O)CC2 [Colchisine, reference compound] |  |  | Mean Lifetime (γ1) [1]: 2295 ± 98 |
| C=C1[C@@H](C)[C@H]2[C@H](Cc3ccccc3)NC(=O)[C@]23[C@H](OC(C)=O)/C=C/[C@@](C)(O)C(=O)[C@@H](C)C/C=C/[C@H]3[C@@H]1O [Cyto. D, cytochalasin D] | significantly promoted dynamin-dynamin interactions | 510 ± 29 | dynamin self-assembly by FLIM, in words [1]: decrease in the lifetime of alexa 488 is detected through the cytoplasm |
| C/C1=C\[C@H](C)C[C@H](C)OC(=O)C[C@H](c2ccc(O)cc2)NC(=O)[C@@H](Cc2c(Br)[nH]c3ccccc23)N(C)C(=O)[C@H](C)NC(=O)[C@@H](C)C1 [Jaspl., jasplakinolide, reference compound] | had no effect | 845 ± 263 | Mean Lifetime (γ1) [1]: 2254 ± 58; dynamin self-assembly by FLIM, in words [1]: did not effect dynamin self-assembly at the membrane |
| COC(=O)Nc1nc2ccc(C(=O)c3cccs3)cc2[nH]1 [nocodazole] | had no effect on dynamin oligomerization |  |  |
| b-methyl-cyclodextrin [MBCD] | occurred unchanged | 916 ± 427 |  |
| CFP-1690K: dynI690K tagged with ECFP (protein, left off: large carriers, dynI690K tagged with ECFP) MGNRGMEDLIPLVNRLQDAFSAIGQNADLDLPQIAVVGGQSAGKSSVLENFVGRDFLPRGSGIVTRRPLVLQLVNATTEYAEFLHCKGKKFTDFEEVRLEIEAETDRVTGTNKGISPVPINLRVYSPHVLNLTLVDLPGMTKVPVGDQPPDIEFQIRDMLMQFVTKENCLILAVSPANSDLANSDALKVAKEVDPQGQRTIGVITKLDLMDEGTDARDVLENKLLPLRRGYIGVVNRSQKDIDGKKDITAALAAERKFFLSHPSYRHLADRMGTPYLQKVLNQQLTNHIRDTLPGLRNKLQSQLLSIEKEVEEYKNFRPDDPARKTKALLQMVQQFAVDFEKRIEGSGDQIDTYELSGGARINRIFHERFPFELVKMEFDEKELRREISYAIKNIHGIRTGLFTPDMAFETIVKKQVKKIREPCLKCVDMVISELISTVRQCTKKLQQYPRLREEMERIVTTHIREREGRTKEQVMLLIDIELAYMNTNHEDFIGFANAQQRSNQMNKKKTSGNQDEILVIRKGWLTINNIGIMKGGSKEYWFVLTAENLSWYKDDEEKEKKYMLSVDNLKLRDVEKGFMSSKHIFALFNTEQRNVYKDYRQLELACETQEEVDSWKASFLRAGVYPERVGDKEKASETEENGSDSFMHSMDPQLERQVETIRNLVDSYMAIVNKTVRDLMPKTIMHLMKNNTKEFIFSELLANLYSCGDQNTLMEESAEQAQRRDEMLRMYHALKEALSIIGDINTTTVSTPMPPPVDDSWLQVQSVPAGRRSPTSSPTPQRRAPAVPPARPGSRGPAPGPPPAGSALGGAPPVPSRPGASPDPFGPPPQVPSRPNRAPPGVPSRSGQASPSRPESPRPPFDL |  |  | Mean Lifetime (γ1) ps ([2]; acceptor YFP not fused to dynamin): 1838 ± 309 ps; Mean Lifetime (γ1) ps ([2]; donor alone, no acceptor): 2292 ± 297 ps |
| CFP-K44A: dynK44A tagged with ECFP (protein, left off: large carriers, dynK44A tagged with ECFP) MGNRGMEDLIPLVNRLQDAFSAIGQNADLDLPQIAVVGGQSAGASSVLENFVGRDFLPRGSGIVTRRPLVLQLVNATTEYAEFLHCKGKKFTDFEEVRLEIEAETDRVTGTNKGISPVPINLRVYSPHVLNLTLVDLPGMTKVPVGDQPPDIEFQIRDMLMQFVTKENCLILAVSPANSDLANSDALKVAKEVDPQGQRTIGVITKLDLMDEGTDARDVLENKLLPLRRGYIGVVNRSQKDIDGKKDITAALAAERKFFLSHPSYRHLADRMGTPYLQKVLNQQLTNHIRDTLPGLRNKLQSQLLSIEKEVEEYKNFRPDDPARKTKALLQMVQQFAVDFEKRIEGSGDQIDTYELSGGARINRIFHERFPFELVKMEFDEKELRREISYAIKNIHGIRTGLFTPDMAFETIVKKQVKKIREPCLKCVDMVISELISTVRQCTKKLQQYPRLREEMERIVTTHIREREGRTKEQVMLLIDIELAYMNTNHEDFIGFANAQQRSNQMNKKKTSGNQDEILVIRKGWLTINNIGIMKGGSKEYWFVLTAENLSWYKDDEEKEKKYMLSVDNLKLRDVEKGFMSSKHIFALFNTEQRNVYKDYRQLELACETQEEVDSWKASFLRAGVYPERVGDKEKASETEENGSDSFMHSMDPQLERQVETIRNLVDSYMAIVNKTVRDLMPKTIMHLMINNTKEFIFSELLANLYSCGDQNTLMEESAEQAQRRDEMLRMYHALKEALSIIGDINTTTVSTPMPPPVDDSWLQVQSVPAGRRSPTSSPTPQRRAPAVPPARPGSRGPAPGPPPAGSALGGAPPVPSRPGASPDPFGPPPQVPSRPNRAPPGVPSRSGQASPSRPESPRPPFDL |  |  | Mean Lifetime (γ1) ps ([2]; acceptor YFP fused to the same dynamin variant): 1858 ± 187 ps |
